Laboratory results: ChEMBL document CHEMBL1147975, “Synthesis, structure, and structure-activity relationship analysis of enamines as potential antibacterials” (2007)
Converted amounts (≈) assume the structure as drawn.

Legend:
Format in all cases: functional
Bacillus subtilis = assay: Antibacterial activity against Bacillus subtilis ATCC 6633 after 24 hrs by MTT method; details: ATCC 6633, 24 h
Candida albicans = assay: Antifungal activity against Candida albicans ATCC 10231 after 48 hrs by MTT method; details: ATCC 10231, 48 h
Aspergillus niger = assay: Antifungal activity against Aspergillus niger ATCC 16404 after 48 hrs by MTT method; details: ATCC 16404, 48 h
Escherichia coli = assay: Antibacterial activity against Escherichia coli ATCC 35218 after 24 hrs by MTT method; details: ATCC 35218, 24 h
Pseudomonas fluorescens = assay: Antibacterial activity against Pseudomonas fluorescens ATCC 13525 after 24 hrs by MTT method; details: ATCC 13525, 24 h
Staphylococcus aureus = assay: Antibacterial activity against Staphylococcus aureus ATCC 6538 after 24 hrs by MTT method; details: ATCC 6538, 24 h
Trichophyton rubrum = assay: Antifungal activity against Trichophyton rubrum ATCC 10218 after 48 hrs by MTT method; details: ATCC 10218, 48 h

MIC (Bacillus subtilis) [µg/mL]	MIC (Candida albicans) [µg/mL]	MIC (Aspergillus niger) [µg/mL]	MIC (Escherichia coli) [µg/mL]	MIC (Pseudomonas fluorescens) [µg/mL]	MIC (Staphylococcus aureus) [µg/mL]	MIC (Trichophyton rubrum) [µg/mL]	SMILES
> 50	> 50	> 50	> 50	> 50	> 50	–	CCOC(=O)/C(=C\Nc1cc(F)cc(F)c1)c1ccc(OC)cc1
> 50	> 50	> 50	> 50	33 (≈ 68 µM)	> 50	–	CCOC(=O)/C(=C/Nc1cc(Br)c(OC)c(Br)c1)c1ccc(OC)cc1
> 50	> 50	> 50	> 50	> 50	> 50	> 50	CCOC(=O)/C(=C\Nc1cc(Br)c(OC)c(Br)c1)c1ccc(OC)cc1
> 50	> 50	> 50	> 50	31.5 (≈ 94.5 µM)	22.8 (≈ 68.4 µM)	–	CCOC(=O)/C(=C/Nc1cc(F)cc(F)c1)c1ccc(OC)cc1
> 50	> 50	> 50	> 50	31.7 (≈ 84.3 µM)	> 50	–	CCOC(=O)/C(=C/Nc1ccc(Br)cc1)c1ccc(OC)cc1
42.2 (≈ 115 µM)	> 50	> 50	42.2 (≈ 115 µM)	27.8 (≈ 75.9 µM)	20.2 (≈ 55.2 µM)	–	CCOC(=O)/C(=C/Nc1cc(Cl)cc(Cl)c1)c1ccc(OC)cc1
> 50	> 50	> 50	> 50	> 50	3.8 (≈ 12.1 µM)	–	CCOC(=O)/C(=C/Nc1ccc(O)cc1)c1ccc(OC)cc1
> 50	> 50	> 50	> 50	> 50	7.9 (≈ 25.2 µM)	–	CCOC(=O)/C(=C\Nc1ccc(O)cc1)c1ccc(OC)cc1
> 50	> 50	> 50	> 50	30 (≈ 83.9 µM)	43.5 (≈ 122 µM)	–	CCOC(=O)/C(=C\Nc1cc(OC)cc(OC)c1)c1ccc(OC)cc1
> 50	> 50	> 50	> 50	33.8 (≈ 92.3 µM)	> 50	–	CCOC(=O)/C(=C\Nc1cc(Cl)cc(Cl)c1)c1ccc(OC)cc1
> 50	> 50	> 50	41.5 (≈ 116 µM)	25.2 (≈ 70.5 µM)	15.8 (≈ 44.2 µM)	–	CCOC(=O)/C(=C/Nc1cc(OC)cc(OC)c1)c1ccc(OC)cc1

Further lines, the compound ahead of its results:

SMILES	MIC (Bacillus subtilis) [µg/mL]	MIC (Candida albicans) [µg/mL]	MIC (Aspergillus niger) [µg/mL]	MIC (Escherichia coli) [µg/mL]	MIC (Pseudomonas fluorescens) [µg/mL]	MIC (Staphylococcus aureus) [µg/mL]	MIC (Trichophyton rubrum) [µg/mL]
CCOC(=O)/C(=C\Nc1ccc(C)cc1)c1ccc(Cl)cc1	> 50	> 50	> 50	> 50	> 50	> 50	–
CCOC(=O)/C(=C\Nc1ccc(Cl)cc1)c1ccc(Cl)cc1	> 50	> 50	> 50	> 50	32.2 (≈ 95.8 µM)	> 50	–
CCOC(=O)/C(=C/Nc1ccccc1Cl)c1ccc(Cl)cc1	43.8 (≈ 130 µM)	> 50	> 50	38.8 (≈ 115 µM)	35.3 (≈ 105 µM)	> 50	–
CCOC(=O)/C(=C\Nc1ccc(Br)cc1)c1ccc(OC)cc1	> 50	> 50	> 50	> 50	> 50	> 50	–
CCOC(=O)/C(=C\Nc1ccc(Br)cc1)c1ccc(Cl)cc1	> 50	> 50	> 50	> 50	> 50	> 50	–
CCOC(=O)/C(=C/Nc1ccc(C)cc1)c1ccc(Cl)cc1	> 50	> 50	–	> 50	> 50	0.9 (≈ 2.85 µM)	–
CCOC(=O)/C(=C/Nc1ccc(Br)cc1)c1ccc(Cl)cc1	> 50	> 50	> 50	> 50	> 50	> 50	–
CCOC(=O)/C(=C/Nc1cc(F)cc(F)c1)c1ccc(Cl)cc1	48.2 (≈ 143 µM)	> 50	> 50	> 13.5	31.5 (≈ 93.3 µM)	1.9 (≈ 5.63 µM)	–
CCOC(=O)/C(=C/Nc1cc(Cl)cc(Cl)c1)c1ccc(Cl)cc1	> 50	> 50	> 50	> 50	25.7 (≈ 69.3 µM)	1.1 (≈ 2.97 µM)	–
CCOC(=O)/C(=C/Nc1ccc(Cl)cc1)c1ccc(Cl)cc1	42 (≈ 125 µM)	> 50	> 50	42.5 (≈ 126 µM)	29.5 (≈ 87.7 µM)	> 50	–
NC[C@H]1O[C@H](O[C@H]2[C@H](O)[C@@H](O[C@H]3O[C@H](CO)[C@@H](O)[C@H](N)[C@H]3O)[C@H](N)C[C@@H]2N)[C@H](O)[C@@H](O)[C@@H]1O [KANAMYCIN]	0.39 (≈ 0.805 µM)	–	–	3.9 (≈ 8.05 µM)	3.9 (≈ 8.05 µM)	1 (≈ 2.06 µM)	–
CCOC(=O)/C(=C\Nc1cc(Cl)cc(Cl)c1)c1ccc(Cl)cc1	> 50	> 50	> 50	> 50	> 50	> 50	–
CCOC(=O)/C(=C\Nc1cc(F)cc(F)c1)c1ccc(Cl)cc1	> 50	> 50	> 50	> 50	> 50	> 50	–
CCOC(=O)/C(=C\Nc1ccccc1Cl)c1ccc(Cl)cc1	> 50	> 50	> 50	42.5 (≈ 126 µM)	> 50	> 50	–
